# Data as given in PMC3702004, “Comparison of Intake and Systemic Relative Effect Potencies of Dioxin-like Compounds in Female Mice after a Single Oral Dose” (Environmental Health Perspectives, 2013).
# Test: Body and organ weight, hepatic lipid content
# Type: in vivo, female C57BL/6 mice
# Details: day 3; for % lipid / g liver: pooled liver samples
# Description: Animals. Eight-week-old female C57BL/6 mice (Harlan laboratories, Venray, the Netherlands) were randomly assigned to treatment groups (six animals per group) and allowed to acclimate for 1.5 weeks. The animals were housed in groups in standard cages and conditions (23 ± 2°C, 50–60% relative humidity, 12-hr dark/light cycle) with free access to food and water. Mice received a single dose of test compound by oral gavage at a dosing volume of 10 mL/kg body weight (BW). Mice treated with corn oil vehicle (10 mL/kg BW) served as controls. For each congener, five different doses were administered, ranging from 0.5–100 μg/kg BW (TCDD) to 5,000–500,000 µg/kg BW (PCB-153). Detailed information on doses is provided in Supplemental Material, Table S1 (http://dx.doi.org/10.1289/ehp.1206336). On day 3 after dosing, animals were euthanized by CO2/O2 asphyxiation, and blood was immediately collected from the abdominal aorta. The liver, thymus, spleen, and adipose tissue were removed, weighed (liver, thymus, and spleen), snap frozen, and stored at –80°C. All animal treatments were performed with permission of the Animal Ethical Committee (DEC Utrecht) and performed according to the [Law on Animal Experiments (1977)]. Animals were treated humanely and with regard for alleviation of suffering.
# Compound analysis. Adipose and liver tissues samples were homogenized in Na2SO4, followed by extraction and clean-up in one step, and then eluted with 200 mL 1:1 hexane:dichloromethane on an open column packed with 40% wt/wt H2SO4-impregnated silica and KOH-silica. Blood plasma samples were extracted on an open column using Chem-Elut (Agilent Technologies, Santa Clara, CA, USA) and then NaCl eluted with 75 mL 3:2 hexane:2-propanol. Clean-up was performed using a miniaturized silica column (as described above), and samples were eluted using 30 mL hexane. Because the samples typically contained high levels of the analytes, only a small fraction was evaporated and analyzed. Prior to evaporation, we spiked a fraction of the samples with ^13C-labeled standards. We checked potential loss of analytes during extraction and clean-up by reextracting the samples using the identical protocol used for the samples. […] Tetradecane was added prior to evaporation. Sample analysis followed the U.S. Environmental Protection Agency Method 1613 ([U.S. Environmental Protection Agency 1994]) using single ion monitoring mode on an Agilent 6809N gas chromatograph (Agilent Technologies) coupled with a Micromass Ultima Autospec Ultra high-resolution mass spectrometer (HRMS; Waters Corp., Milford, MA, USA). Compounds were separated on a 60 m × 0.25 mm DB5-MS column ([…]; J&W Scientific, Folsom, CA, USA). The HRMS was operated with electron impact ionization with electron energy of 35 eV and an ion source temperature of 250°C. To reduce the number of analyses, samples were pooled before clean-up. […] This method was used because full congener–specific separation could be achieved on the high-resolution GC–HRMS. For lipid determination, samples were evaporated to dryness after the extraction step, and the amount of lipids was determined gravimetrically. Concentrations were calculated based on lipid weight and wet weight. The analysis of samples for the PCB-118 5,000 μg/kg BW dose failed during the procedure; thus analysis for this group could not be completed.
# Statistical analysis. Statistical significant differences of the means and variances were determined using one-way analysis of variance (ANOVA) followed by Tukey-Kramer multiple comparisons. Differences were considered statistically significant at p < 0.05. Statistical calculations were performed using GraphPad 6.01 (GraphPad Software Inc.).
smiles,measurement,setting,value
"Clc1cc(Cl)c(-c2cc(Cl)c(Cl)cc2Cl)cc1Cl [PCB-153, 2,2´,4,4´,5,5´-hexachlorobiphenyl]",Body weight,oral dose 5000 µg/kg bw,18.8 ± 1.1 gram
same,Liver weight,oral dose 5000 µg/kg bw,4.71 ± 0.34 % of bw
same,Spleen weight,oral dose 5000 µg/kg bw,0.30 ± 0.04 % of bw
same,Thymus weight,oral dose 5000 µg/kg bw,0.25 ± 0.05 % of bw
same,% lipid / g liver,oral dose 5000 µg/kg bw,3.3%
same,Body weight,oral dose 15000 µg/kg bw,19.1 ± 0.5 gram
same,Liver weight,oral dose 15000 µg/kg bw,4.96 ± 0.10 % of bw
same,Spleen weight,oral dose 15000 µg/kg bw,0.36 ± 0.04 % of bw
same,Thymus weight,oral dose 15000 µg/kg bw,0.26 ± 0.04 % of bw
same,% lipid / g liver,oral dose 15000 µg/kg bw,3.9%
same,Body weight,oral dose 50000 µg/kg bw,19.6 ± 0.8 gram
same,Liver weight,oral dose 50000 µg/kg bw,5.15 ± 0.38 % of bw
same,Spleen weight,oral dose 50000 µg/kg bw,0.33 ± 0.04 % of bw
same,Thymus weight,oral dose 50000 µg/kg bw,0.29 ± 0.03 % of bw
same,% lipid / g liver,oral dose 50000 µg/kg bw,3.4%
same,Body weight,oral dose 150000 µg/kg bw,19.9 ± 1.1 gram
same,Liver weight,oral dose 150000 µg/kg bw,5.47 ± 0.37 % of bw
same,Spleen weight,oral dose 150000 µg/kg bw,0.34 ± 0.05 % of bw
same,Thymus weight,oral dose 150000 µg/kg bw,0.25 ± 0.04 % of bw
same,Body weight,oral dose 500000 µg/kg bw,18.8 ± 0.7 gram
same,Liver weight,oral dose 500000 µg/kg bw,5.80 ± 0.30 % of bw
same,Spleen weight,oral dose 500000 µg/kg bw,0.33 ± 0.05 % of bw
same,Thymus weight,oral dose 500000 µg/kg bw,0.24 ± 0.04 % of bw
same,Dose with significant increase in liver weight vs vehicle controls,single oral dose,"≥ 500,000 µg/kg BW"
same,Dose with statistically significant decrease in relative thymus weight vs vehicle controls,single oral dose,"500,000 μg/kg BW"
"Clc1ccc(-c2cc(Cl)c(Cl)c(Cl)c2Cl)cc1Cl [PCB-156, 2,3,3´,4,4´,5-hexachlorobiphenyl]",Body weight,oral dose 5000 µg/kg bw,17.7 ± 0.7 gram
same,Liver weight,oral dose 5000 µg/kg bw,4.71 ± 0.43 % of bw
same,Spleen weight,oral dose 5000 µg/kg bw,0.27 ± 0.03 % of bw
same,Thymus weight,oral dose 5000 µg/kg bw,0.21 ± 0.05 % of bw
same,% lipid / g liver,oral dose 5000 µg/kg bw,3.0%
same,Body weight,oral dose 15000 µg/kg bw,18.7 ± 1.3 gram
same,Liver weight,oral dose 15000 µg/kg bw,5.14 ± 0.41 % of bw
same,Spleen weight,oral dose 15000 µg/kg bw,0.30 ± 0.03 % of bw
same,Thymus weight,oral dose 15000 µg/kg bw,0.23 ± 0.04 % of bw
same,% lipid / g liver,oral dose 15000 µg/kg bw,3.3%
same,Body weight,oral dose 50000 µg/kg bw,18.0 ± 0.9 gram
same,Liver weight,oral dose 50000 µg/kg bw,5.96 ± 0.62 % of bw
same,Spleen weight,oral dose 50000 µg/kg bw,0.31 ± 0.04 % of bw
same,Thymus weight,oral dose 50000 µg/kg bw,0.25 ± 0.02 % of bw
same,% lipid / g liver,oral dose 50000 µg/kg bw,5.7%
same,Body weight,oral dose 150000 µg/kg bw,19.2 ± 1.1 gram
same,Liver weight,oral dose 150000 µg/kg bw,6.79 ± 0.51 % of bw
same,Spleen weight,oral dose 150000 µg/kg bw,0.29 ± 0.02 % of bw
same,Thymus weight,oral dose 150000 µg/kg bw,0.21 ± 0.04 % of bw
same,% lipid / g liver,oral dose 150000 µg/kg bw,6.8%
same,Body weight,oral dose 500000 µg/kg bw,18.7 ± 0.6 gram
same,Liver weight,oral dose 500000 µg/kg bw,8.10 ± 0.17 % of bw
same,Spleen weight,oral dose 500000 µg/kg bw,0.33 ± 0.03 % of bw
same,Thymus weight,oral dose 500000 µg/kg bw,0.18 ± 0.05 % of bw
same,Dose with significant increase in liver weight vs vehicle controls,single oral dose,"≥ 50,000 µg/kg BW"
"Clc1cc2c(cc1Cl)Oc1c(cc(Cl)c(Cl)c1Cl)O2 [PeCDD, 1,2,3,7,8-pentachlorodibenzodioxin]",Body weight,oral dose 0.5 µg/kg bw,18.6 ± 1.3 gram
same,Liver weight,oral dose 0.5 µg/kg bw,4.56 ± 0.34 % of bw
same,Spleen weight,oral dose 0.5 µg/kg bw,0.30 ± 0.02 % of bw
same,Thymus weight,oral dose 0.5 µg/kg bw,0.21 ± 0.03 % of bw
same,% lipid / g liver,oral dose 0.5 µg/kg bw,4.7%
same,Body weight,oral dose 2.5 µg/kg bw,19.4 ± 1.1 gram
same,Liver weight,oral dose 2.5 µg/kg bw,5.02 ± 0.26 % of bw
same,Spleen weight,oral dose 2.5 µg/kg bw,0.31 ± 0.03 % of bw
same,Thymus weight,oral dose 2.5 µg/kg bw,0.29 ± 0.04 % of bw
same,% lipid / g liver,oral dose 2.5 µg/kg bw,6.0%
same,Body weight,oral dose 10 µg/kg bw,18.9 ± 1.2 gram
same,Liver weight,oral dose 10 µg/kg bw,5.32 ± 0.43 % of bw
same,Spleen weight,oral dose 10 µg/kg bw,0.32 ± 0.04 % of bw
same,Thymus weight,oral dose 10 µg/kg bw,0.23 ± 0.06 % of bw
same,% lipid / g liver,oral dose 10 µg/kg bw,6.2%
same,Body weight,oral dose 25 µg/kg bw,19.4 ± 1.5 gram
same,Liver weight,oral dose 25 µg/kg bw,5.26 ± 0.27 % of bw
same,Spleen weight,oral dose 25 µg/kg bw,0.32 ± 0.04 % of bw
same,Thymus weight,oral dose 25 µg/kg bw,0.26 ± 0.05 % of bw
same,Body weight,oral dose 100 µg/kg bw,18.8 ± 1.1 gram
same,Liver weight,oral dose 100 µg/kg bw,5.83 ± 0.50 % of bw
same,Spleen weight,oral dose 100 µg/kg bw,0.33 ± 0.04 % of bw
same,Thymus weight,oral dose 100 µg/kg bw,0.24 ± 0.05 % of bw
same,Dose with significant increase in liver weight vs vehicle controls,single oral dose,≥ 100 µg/kg BW
